In US20060141122A1 (Universitat De Les Illes Balears and Industrias Agricolas …, priority 1999, published 2006):
Counter-ions that a name gives are not always drawn.

Key:
[1] = system: urinary risk of forming calcium kidney stones; experiment: Urinary risk of forming calcium kidney stones, study on 74 individuals with oxalocalcium kidney stones; type: in vivo, human; details: for drop of the risk of forming calcium stones: 15 days after treatment start, citrate 6.48 g/day, phytate 120 mg/day, individuals with oxalocalcium kidney stones
Procedure: These individuals have been divided into three groups: 19 individuals with kidney stones (Group I), 38 individuals with kidney stones (Group II) and 17 individuals with kidney stones (Group III). The urinary risk to form calcium kidney stones was evaluated for each individual before being subjected to any pharmacological treatment.
15 days after treatment starting, the urinary risk of forming calcium kidney stones was evaluated again for each individual.

[2] = cited from earlier work
[3] = Urinary excretion of phytate after dietary intake; type: in vivo

| SMILES | drop of the risk of forming calcium stones [1] | effect on urine pH ([1]; treatment of calcium kidney stones, compared with citrate) | effect on bioavailability of oligoelements such as Zn(II) and Fe(III) ([2]; doses in which maximum excretions are produced) | toxicity ([2]; megadose of 8.8 g/day) | maximum urinary excretion as share of the total intake ([3]; diet supplemented with products rich in phytates) | intake above which the excreted amount in urine does not increase ([3]; urinary excretion, dose-dependent up to this intake) |
| --- | --- | --- | --- | --- | --- | --- |
| O=C(O)CC(O)(CC(=O)O)C(=O)O [citrate, potassium citrate, reference compound] | 52% |  |  |  |  |  |
| O=P(O)(O)O[C@H]1[C@H](OP(=O)(O)O)[C@@H](OP(=O)(O)O)[C@H](OP(=O)(O)O)[C@@H](OP(=O)(O)O)[C@H]1OP(=O)(O)O [phytate, inositol hexaphosphate] | 50% | does not cause increases of the urine pH | do not affect the bioavailability | does not produce any toxicity | 1-5% | 20.9 mg/kg of body weight |
